Measurements published in US20170008888A1 (KYORIN PHARMACEUTICAL CO., LTD., priority 2014, published 2017).

Tested on: human PBMCs
Test: Human PBMC TNF-α response to endotoxin (ELISA)
Assay type: cell-based
Conditions: 0.1 μg/ml LPS 16 h, read-out: EC50 for the inhibition of the human PBMC TNF-α response to endotoxin, ave. ± S.D.
Method: Human PBMCs (Astarte Biologics, Redmond, Wash.) were seeded at 2e6 cells/ml in RPMI 1640 containing 10% (v/v) charcoal-dextran treated, heat inactivated FBS (Omega Scientific, Tarzana, Calif.), 0.05 mM 2-Mercaptoethanol (Sigma-Aldrich, St. Louis, Mo.), and 1×Pen/Strep Amphotericin B (Lonza, Allendale, N.J.). Cells were pre-treated with test compounds (10 μM down by ⅕ in a 4-point serial dilution series) for 1 h at 37° C. in a humidified atmosphere at 5% CO2. Cells were then stimulated with 0.1 μg/ml lipopolysaccharide (LPS) from E. coli 0111:B4 (EMD Millipore, Billerica, Mass.) for 16 h at 37° C. in a humidified atmosphere at 5% CO2. Supernatant was collected and a 25-fold dilution was analyzed for TNF-α concentration using an ELISA kit from Life Technologies (Grand Island, N.Y.) according to the manufacturer's instructions. Absorbance at 450 nm was read using the Synergy 2 multi-detection microplate reader (BioTek Instruments, Winooski, Vt.).

In the case of `CN1C(=O)c2ccccc2N(C)c2cc(N[C@@H]3CCC[C@H](O)C3)ncc21` [Compound T111], the EC50 is reported as 1.92 µM.
Compound `Cc1cccc2c1N(C)c1cc(N[C@H]3CC[C@H](O)CC3)ncc1N(C)C2=O` [Compound T121] has an EC50 of 2.99 µM.
For `CCOc1cc(C(=O)N2CCN(C3CCN(C)CC3)CC2)ccc1Nc1cc2c(cn1)N(C)C(=O)c1ccccc1S2(=O)=O` [Compound T101], the EC50 was over 15 µM.
`CN1C(=O)c2ccccc2N(C)c2cc(N[C@H]3CC[C@H](N)C3)ncc21` [Compound T133] showed an EC50 of 9.84 µM.
`CCN(CC)CCN(C)C(=O)c1ccc(OC)c(Nc2cc3c(cn2)N(C)C(=O)c2ccccc2N3C)c1` [Compound 118] gave an EC50 of 3.32 µM.
Compound `CN1C(=O)c2ccccc2N(C)c2cc(NC3CCN(S(=O)(=O)CCN4CCCC4)CC3)ncc21` [Compound T130] has an EC50 of 2.46 µM.
Compound `CN1C(=O)c2ccccc2N(C)c2cc(N[C@H]3C[C@H](N)C3)ncc21` [Compound T135] has an EC50 of 9.2 µM.
Work on `CN1C(=O)c2ccccc2N(C)c2cc(N[C@H]3CC[C@@H](O)C3)ncc21` [Compound T134] yielded an EC50 of 3.68 µM.
With `CN1C(=O)c2ccccc2N(C)c2cc(N[C@@H]3CC[C@@H](O)C3)ncc21` [Compound T132] the EC50 was 3.28 µM.
Compound `CCOc1cc(C(=O)N[C@H]2CC[C@H](O)CC2)ccc1Nc1cc2c(cn1)N(C)C(=O)c1ccccc1S2(=O)=O` [Compound T91] has an EC50 of over 15 µM.
In the case of `CCOc1cc(C(=O)N[C@H]2CC[C@H](O)CC2)ccc1Nc1cc2c(cn1)N(C)C(=O)c1ccccc1S2` [Compound T90], the EC50 is reported as over 15 µM.
`CCN(CC)CCN(C)C(=O)c1cccc(Nc2cc3c(cn2)N(C)C(=O)c2ccccc2N3C)c1OC` [Compound 119] showed an EC50 of 3.96 µM.
`CCOc1cc(C(=O)N(CCO)CCO)ccc1Nc1cc2c(cn1)N(C)C(=O)c1ccccc1N2C` [Compound 121] was tested, and the EC50 was 0.95 µM.
`CCOc1cc(C(=O)N(C)C)ccc1Nc1cc2c(cn1)N(C)C(=O)c1ccccc1N2C` [Compound 117] showed an EC50 of 1.49 µM.
Compound `CN1C(=O)c2ccccc2N(C)c2cc(N[C@@H]3CCCCC3O)ncc21` (some centres unmarked) [Compound T109] has an EC50 of 2.16 µM.
Compound `CCO[C@@H]1CCCC[C@H]1Nc1cc2c(cn1)N(C)C(=O)c1ccccc1N2C` [Compound T112] has an EC50 of 2.36 µM.
`CN1C(=O)c2ccccc2N(C)c2cc(N[C@H]3CC[C@@](C)(O)CC3)ncc21` [Compound T123] was tested, and the EC50 was 2.1 µM.
For `CN1C(=O)c2ccccc2N(C)c2cc(N[C@H]3C[C@@H](O)C3)ncc21` [Compound T131], the EC50 was 6.06 µM.
`CCOc1cc(C(=O)N2CC[C@@H](NC3CCN(C)CC3)C2)ccc1Nc1cc2c(cn1)N(C)C(=O)c1ccccc1N2C` [Compound T60] gave an EC50 of 0.95 µM.
`CN1C(=O)c2ccccc2N(C)c2cc(NC3CCCCC3O)ncc21` (centres unmarked) [Compound T108] gave an EC50 of 3.01 µM.
